Results on 8 compounds are retold here after publication PMC7549094 (Journal of Medicinal Chemistry, 2020).

For series [1], the target named is wild-type (PSMB4^WT) L. tarentolae proteasome (Leishmania tarentolae, UniProt A0A640KTY7+A0A640KW57). Put plainly: chymotrypsin-like activity of purified wild-type L. tarentolae proteasome. Format: biochemical. The following applies: n = 3 technical replicates.
For series [2] the following is noted: microsomal extraction ratio, 1 h incubation in microsomes.
The conditions of series [3]: microsomal extraction ratio, 1 h incubation in microsomes. The source holds these as a separate data set.
The conditions of series [4]: microsomal extraction ratio, 1 h incubation in microsomes. This is another data set of the same source.
The target in series [5] is T1, purified L. donovani proteasome (Leishmania donovani, UniProt A0A3Q8IIY4+A0A3S7XA80).
T1 sequence (A0A3Q8IIY4 100-302): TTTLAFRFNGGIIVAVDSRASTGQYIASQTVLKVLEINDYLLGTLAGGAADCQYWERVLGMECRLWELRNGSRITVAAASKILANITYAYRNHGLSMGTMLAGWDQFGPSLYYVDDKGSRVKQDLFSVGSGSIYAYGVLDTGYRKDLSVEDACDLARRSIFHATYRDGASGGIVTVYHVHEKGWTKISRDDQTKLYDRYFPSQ
T1 sequence (A0A3S7XA80 1-206): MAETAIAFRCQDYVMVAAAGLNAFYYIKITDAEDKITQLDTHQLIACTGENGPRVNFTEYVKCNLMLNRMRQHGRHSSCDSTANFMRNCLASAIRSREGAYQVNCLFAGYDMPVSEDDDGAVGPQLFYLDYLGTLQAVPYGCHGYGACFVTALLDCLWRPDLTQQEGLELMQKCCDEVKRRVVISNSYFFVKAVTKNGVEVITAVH
Put plainly: chymotrypsin-like activity of purified L. donovani proteasome. Format: biochemical. The note with it: half-maximum inhibition of chymotrypsin-like activity of purified L. donovani proteasome; mean, n = 4 technical replicates.

Series [6] relates to intramacrophage L. donovani amastigotes. Put plainly: L. donovani amastigote proliferation within primary mouse macrophages. The note with it: Leishmania donovani, Macrophage. The format is cell-based.
The nature of series [7]: high-throughput solubility pH 6.8. The format is physicochemical. The following applies: high-throughput assay format, read-out: HT sol. pH 6.8.
For series [8] the following is noted: microsomal extraction ratio, 1 h incubation in microsomes. The source holds these as a separate data set.
Series [9] is described as follows: pharmacokinetics in cynomolgus monkey. Format: in vivo. The note with it: monkey plasma; oral administration of 1; dose-normalized AUC. As to the method: In Vivo Intravenous PK Study in Non-human Primates. The IV PK study in non-human primates was carried out at Covance research facility in Greenfield, Indiana. The research facility is accredited by AAALAC (Association for Assessment and Accreditation of Laboratory Animal Care). The male Cynomolgus monkeys were approximately 4.5 years of age and weighed 4.2 to 5.0 kg. 1 was administered […]
75% polyethylene glycol (PEG300) as described in the earlier section. Doses were administered once by intravenous injection via the saphenous vein at a dose of 0.3 mg/kg with a dosing volume of 0.1 ml/kg.
Clinical observations and food consumption determinations were performed on all animals. Blood samples for PK analysis were collected from all animals via the femoral vein approximately 0.083, 0.25, […]
In Vivo Oral PK Study in Non-human Primates. The PO PK study in non-human primates was conducted at a Novartis facility using Non-naïve male Cynomolgus monkeys weighing 3.8 to 4.0 kg. The monkeys were fasted overnight and fed 2 hours post-dose. 1 was formulated in a suspension of 0.5% […]
gavaged with 5 mL/kg of the suspension for a total dose of 10 mg/kg. The gavage tubing was flushed with 5 mL of water to ensure the gavage tubing was cleared of the formulation. Blood samples for PK analysis were collected from all animals via the saphenous veins approximately 0.25, 0.5, 1, 2, 4, 7, 24, 48, and 72 hours post-dose.

Series [10] in a line: pharmacokinetics, summary across preclinical species. The note with it: mouse, rat, and monkey plasma; single oral dose of 1. The format is in vivo, rat, dog, cynomolgus monkey.
Series [11] can be described thus: metabolite profile in mouse hepatocytes. The format is in vitro ADME. The note with it: 10 μM of 1 for 4 h, UV 250 nm, normalized to largest peak.
Series [12] in a line: metabolite profile in rat hepatocytes. Format: in vitro ADME. The following applies: 10 μM of 1 for 4 h, UV 250 nm, normalized to largest peak.
A short description of series [13]: metabolite profile in dog hepatocytes. The format is in vitro ADME. The following applies: 10 μM of 1 for 4 h, UV 250 nm, normalized to largest peak.
Series [14] can be described thus: metabolite profile in monkey hepatocytes. The format is in vitro ADME. The note with it: 10 μM of 1 for 4 h, UV 250 nm, normalized to largest peak.
Series [15] can be described thus: metabolite profile in human hepatocytes. The format is in vitro ADME. The following applies: 10 μM of 1 for 4 h, UV 250 nm, normalized to largest peak.
For series [16] the following is noted: mouse plasma; oral administration of 1; dose-normalized AUC.
Procedure: In Vivo PK Studies in Mice.
(§1) The solution was filtered using a 0.45 m syringe filter before dosing. Two male Balb/c mice were administered 1 intravenously via the lateral tail
(§2) vein at 5 mg/kg with a dose volume of 2.0 mL/kg. 1 was also formulated in a suspension of 0.5%
(§3) methylcellulose with 0.5% Tween 80 (0.5% MC/0.5% Tw80) in water at 2.5 mg/mL. A group of mice
(§4) (n=3) were administered 1 orally via gavage at 20 mg/kg with a dose volume of 8.0 mL/kg.
(§5) The mouse blood samples were centrifuged to separate plasma and the plasma samples were frozen at -
In Vivo PK Studies in Rats.
Two male Wistar rats were administered
(§6) 1 intravenously via the lateral tail vein at 3 mg/kg with a dose volume of 1.0 mL/kg. 1 was also formulated
(§7) in a suspension of 0.5% methylcellulose with 0.5% Tween 80 (0.5% MC/0.5% Tw80) in water at 2.0
(§8) mg/mL. The second group of rats (n=3) were administered 1 orally via gavage at 10 mg/kg in suspension
(§9) with a dose volume of 5.0 mL/kg. Six blood samples of 100 μL each were collected serially from each
(§10) animal via the saphenous vein up to 24 hours after dosing. The rat blood samples were centrifuged to
(§11) separate plasma and the plasma samples were frozen at -20°C until analysis.
In Vivo PK Studies in Dogs.
(§12) The solution was filtered using a 0.45 m syringe filter before dosing. Three male Beagle dogs were administered 1 intravenously via saphenous
(§13) vein at 0.3 mg/kg with a dose volume of 0.1 mL/kg. 1 was also formulated in a suspension of 0.5%
(§14) methylcellulose with 0.5% Tween 80 (0.5%MC/0.5% Tween 80) in water at 1.0 mg/mL. The second
(§15) group of male dogs (n=2) were administered 1- orally via gavage at 1.0 mg/kg with a dose volume of 1.0
(§16) mL/kg. Seven blood samples of 250 µL each were collected serially from each animal via the jugular vein
(§17) The dog blood samples were centrifuged to separate plasma and the plasma
(§18) samples were frozen at -20 °C until analysis.
For series [17] the following is noted: rat plasma; oral administration of 1; dose-normalized AUC.
The conditions of series [18]: dog plasma; oral administration of 1; dose-normalized AUC.
Procedure: In Vivo PK Studies in Mice.
as §1, §2, §3, §4, §5
In Vivo PK Studies in Rats.
Two male Wistar rats were administered
as §6, §7, §8, §9, §10, §11
In Vivo PK Studies in Dogs.
as §12, §13, §14, §15, §16, §17, §18

Converted amounts (≈) assume the structure as drawn. Like-named read-outs stand apart in the source and are kept apart here.

Chain of wild-type (PSMB4^WT) L. tarentolae proteasome (A0A640KW57 100-302): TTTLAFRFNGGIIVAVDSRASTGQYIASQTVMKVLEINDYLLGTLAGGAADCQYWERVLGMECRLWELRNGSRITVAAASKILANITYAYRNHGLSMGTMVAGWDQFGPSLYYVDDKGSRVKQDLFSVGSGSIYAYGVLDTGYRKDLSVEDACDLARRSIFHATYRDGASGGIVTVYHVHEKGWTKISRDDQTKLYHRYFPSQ
Chain of wild-type (PSMB4^WT) L. tarentolae proteasome (A0A640KTY7 1-206): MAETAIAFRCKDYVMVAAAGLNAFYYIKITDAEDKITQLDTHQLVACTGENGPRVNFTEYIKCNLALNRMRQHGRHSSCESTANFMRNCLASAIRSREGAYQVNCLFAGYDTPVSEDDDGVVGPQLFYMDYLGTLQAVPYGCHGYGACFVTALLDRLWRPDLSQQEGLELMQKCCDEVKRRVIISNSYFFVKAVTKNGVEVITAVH

The compound `CC(C)C[C@H](NC(=O)[C@H](Cc1ccccc1)NC(=O)c1cnccn1)B(O)O` [Bortezomib, bortezomib, reference compound] gave a half-inhibitory concentration (IC50) in series [1] of 4 nM.
`Cc1nc(C)c(C(=O)Nc2ccc(F)c(-c3nc4ncc(-c5ccccn5)cn4n3)c2)o1` [compound 2]: the ER rat in [2] is listed as less than 0.27. The ER human in [3] is 0.3. The ER dog in series [4] is recorded as 0.46.
In series [5], `Cc1nc(C)c(C(=O)Nc2ccc(F)c(-c3nc4ncc(-c5ncccc5C(F)F)cn4n3)c2)o1` [compound 3] returned an IC50 of 60 nM. This compound also yielded an EC50 in series [6] of 110 nM. Also, the solubility kinetic in series [7] was found to be 21 µM (≈ 10.1 µg/mL). Moreover, the ER mouse in series [8] was 0.51. In series [2], the ER rat is given as less than 0.18. In addition, the ER human in [3] turned out to be 0.55. Moreover, in series [4], the ER dog was determined as 0.57.
`Cc1nc(C)c(C(=O)Nc2ccc(F)c(-c3nc4ncc(-c5ncccc5Cl)cn4n3)c2)o1` [compound 4] had a half-inhibitory concentration (IC50) in series [5] of 100 nM. Further, in [6], the midpoint of the response, the EC50, lay at 50 nM. Besides, the solubility kinetic in series [7] worked out at 7 µM (≈ 3.25 µg/mL).
In turn, `COc1cccnc1-c1cnc2nc(-c3cc(NC(=O)c4oc(C)nc4C)ccc3F)nn2c1` [compound 5] yielded a half-maximal effective concentration (EC50) in series [6] of 70 nM. Besides, the solubility kinetic in series [7] came to 7 µM (≈ 3.22 µg/mL). Further, the ER mouse in series [8] came out at 0.4. The ER human in series [3] is on record as less than 0.21. In addition, the ER dog in series [4] is given as 0.56.
Take `Cc1nc(C)c(C(=O)Nc2ccc(F)c(-c3nc4ncc(-c5ncccc5CO)cn4n3)c2)o1` [compound 6]: in [5], the half-inhibitory concentration (IC50) was 70 nM. In addition, in series [6], the EC50 turned out to be 500 nM. The “metabolite exposure relative to 1” value in series [9] is given as 1.7%; in series [10], “less than 10%”; in series [16] it was 1.5%; in series [17], 1.5%. Besides, the abundance mouse result in series [11] was “+ (+ ≤25%)”. In addition, in series [12], the abundance rat entry is recorded as “+ (+ ≤25%)”. Besides, the abundance dog result in [13] was “+ (+ ≤25%)”. Moreover, the abundance monkey result in series [14] is on record as “+ (+ ≤25%)”. For the same compound, the abundance human entry in [15] was “+ (+ ≤25%)”.
Regarding `Cc1nc(CO)c(C(=O)Nc2ccc(F)c(-c3nc4ncc(-c5ncccc5C)cn4n3)c2)o1` [compound 7], the “metabolite exposure relative to 1” value is reported as 11% in series [9], 5–17% in series [10], 4.5% in [16] and 17% in series [17]. In addition, in [11], the abundance mouse entry is recorded as “+ (+ ≤25%)”. Further, the abundance rat result in series [12] is on record as “+ (+ ≤25%)”. Also, the abundance dog entry in series [13] is “+ (+ ≤25%)”. The abundance monkey entry in series [14] is recorded as “+ (+ ≤25%)”. The abundance human result in [15] is listed as “+ (+ ≤25%)”.
As for `Cc1cccnc1-c1cnc2nc(-c3cc(NC(=O)c4oc(CO)nc4C)ccc3F)nn2c1` [compound 8], the “metabolite exposure relative to 1” value in series [9] is given as 5.1%; in [10] it was 0.2–5%; in series [16], 0.2%; in [17], 1.5%; in series [18], 120%. Besides, in series [12], the abundance rat entry is recorded as “+ (+ ≤25%)”. Besides, the abundance dog result in series [13] is listed as “++ (++ ≤ 75%>25%)”. Also, the abundance monkey entry in series [14] is reported as “+ (+ ≤25%)”. Besides, the abundance human result in series [15] was “+ (+ ≤25%)”.
